Measured values as given in patent publication US20180318300A1, “TREATMENT OF AUTOIMMUNE DISEASE” (MingSight Pharmaceuticals, Inc., priority 2015, published 2018).
Marks after values point to notes of the source that are not given here.

Key:
[1] = tested on: experimental autoimmune encephalitis (EAE) model; assay: Experimental autoimmune encephalitis (EAE) model in Lewis rats; type: in vivo; conditions: for EAE incidence (%): from Day 8
Procedure: Compound A was tested in the experimental autoimmune encephalitis (EAE) model in Lewis rats. EAE was induced by MBP69-88/CFA immunization and pertussis toxin injection in Lewis rats (Hashim, et al., 1986, J Neurosci Res.; 16(3):467-78). Compound A was prepared as an oral suspension and dosed orally, twice per day (BID) at three doses, 7.5 and 15 and 30 mg/kg for total daily doses of 15, 30 and 60 mg/kg. The efficacy was compared to animals that received the positive control FTY720 (also known as fingolimod; a compound approved for use in humans) dosed once per day at a dose of 0.5 mg/kg.

MRL/lpr lupus model = assay: MRL/lpr lupus model; type: in vivo
[2] = treatment of increased spleen weight; type: in vivo; conditions: FIG. 10
[3] = tested on: MRL/lpr mouse model of lupus; assay: MRL/lpr mouse model of lupus; type: in vivo, Female MRL/MpJ-Tnfrsf6lpr/J mice
Procedure: Compound A was tested for efficacy in the MRL/lpr mouse model of lupus (Shlomchik M J, et al, 1994, J Exp Med 180:1295-1306; Cohen P L and Eisenberg R. A. 1991, Annu Rev Immunol, 9:243-69; Honigberg, L. A., et al., 2010, Proc Natl Acad Sci USA. 107:13075-80). Female MRL/MpJ-Tnfrsf6lpr/J mice of 8-9 weeks of age were used in the study. When the mice reached 12 weeks of age, they were randomized by animal body weight into one of the treatment groups or an untreated control group. Treatments was initiated after randomization and continued for 12 weeks. Starting on study week 1, and then every week thereafter, urine from each animal was tested for proteinuria using the Clinitech Multistick test strip (Bayer). The animals were observed daily for significant clinical signs, moribundity and mortality. Scoring of lymphadenopathy (cervical, brachial, and inguinal) for all animals was recorded every week once lesions become apparent in 50% of the animals in vehicle-treated group.
Compound A was prepared as an oral suspension. Initial dosing was completed at two dose levels, 60 and 90 mg/kg, BID for a total dose of 120 and 180 mg/kg/day. […] Dosing for the final 8 weeks was at 180 and 240 mg/kg/day.

Human PKC delta = Human PKC delta (Homo sapiens, UniProt Q05655); assay: In vitro PKC inhibition assay, PKC delta; type: biochemical
Chain of Human PKC delta (Q05655 whole entry): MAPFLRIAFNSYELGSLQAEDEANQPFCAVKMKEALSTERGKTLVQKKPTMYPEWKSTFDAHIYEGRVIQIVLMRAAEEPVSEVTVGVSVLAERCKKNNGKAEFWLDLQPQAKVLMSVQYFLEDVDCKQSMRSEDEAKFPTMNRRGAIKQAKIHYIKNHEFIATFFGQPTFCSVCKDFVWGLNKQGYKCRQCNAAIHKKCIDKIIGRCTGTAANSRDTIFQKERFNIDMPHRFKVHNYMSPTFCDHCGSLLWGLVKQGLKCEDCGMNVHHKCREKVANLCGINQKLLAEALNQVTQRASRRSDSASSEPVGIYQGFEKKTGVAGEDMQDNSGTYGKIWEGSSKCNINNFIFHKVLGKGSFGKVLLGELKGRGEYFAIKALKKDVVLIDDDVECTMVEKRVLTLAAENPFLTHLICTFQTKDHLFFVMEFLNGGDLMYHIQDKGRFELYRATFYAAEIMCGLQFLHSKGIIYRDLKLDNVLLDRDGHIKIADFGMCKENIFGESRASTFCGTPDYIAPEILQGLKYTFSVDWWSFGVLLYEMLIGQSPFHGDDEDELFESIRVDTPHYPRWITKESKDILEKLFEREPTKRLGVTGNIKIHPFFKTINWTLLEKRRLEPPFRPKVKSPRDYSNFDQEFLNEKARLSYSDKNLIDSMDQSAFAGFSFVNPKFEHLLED
Description: (§1) The methods for these determinations have been described (Grant, et al. 2010, Eur J Pharmacol. 627:16-25).

[4] = tested on: experimental autoimmune uveitis; assay: Lewis rat model of experimental autoimmune uveitis; type: in vivo; conditions: oral, once per day, 10 and 20 mg/kg
Procedure: The efficacy was compared to animals that received the positive control cyclosporine dosed at 25 mg/kg. […] Efficacy in the model was assessed by clinical grading and by assessment of the sections of the eyes prepared for histology at the completion of the experiment.

[5] = tested on: rat model of encephalitis; assay: rat model of encephalitis; type: in vivo; conditions: FIG. 11
Interleukin-8 release = assay: Interleukin-8 release; type: cell-based
Description: as §1

PKCβ = PKCβ (Homo sapiens, UniProt P05771); assay: pSHP2 (PKCβ cell assay); type: cell-based
Chain of PKCβ (P05771 whole entry, species assumed): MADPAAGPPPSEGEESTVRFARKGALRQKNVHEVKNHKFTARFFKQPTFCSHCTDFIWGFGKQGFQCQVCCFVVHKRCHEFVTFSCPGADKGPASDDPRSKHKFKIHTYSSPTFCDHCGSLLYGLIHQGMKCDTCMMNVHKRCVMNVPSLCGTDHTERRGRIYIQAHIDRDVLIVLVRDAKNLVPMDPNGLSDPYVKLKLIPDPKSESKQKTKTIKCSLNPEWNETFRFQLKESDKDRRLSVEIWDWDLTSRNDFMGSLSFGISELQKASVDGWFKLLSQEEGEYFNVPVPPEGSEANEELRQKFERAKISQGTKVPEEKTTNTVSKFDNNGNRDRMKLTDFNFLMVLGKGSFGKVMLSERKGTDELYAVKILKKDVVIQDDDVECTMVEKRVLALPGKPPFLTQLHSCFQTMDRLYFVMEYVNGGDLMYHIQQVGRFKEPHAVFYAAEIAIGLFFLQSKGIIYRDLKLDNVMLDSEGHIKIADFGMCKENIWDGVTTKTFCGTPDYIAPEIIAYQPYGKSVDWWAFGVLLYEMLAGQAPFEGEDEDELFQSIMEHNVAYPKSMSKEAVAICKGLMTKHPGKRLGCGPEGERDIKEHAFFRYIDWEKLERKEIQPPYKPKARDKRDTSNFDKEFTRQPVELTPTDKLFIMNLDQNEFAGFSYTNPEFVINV

[6] = Separate pharmacokinetics experiments in mice; type: in vivo; conditions: 60 mg/kg dose, oral suspension
[7] = 120 mg/kg p.o. BID (60 mg/kg BID for the initial 4 weeks)
[8] = both doses (180 and 240 mg/kg/day for the final 8 weeks)

In the case of `CCCCCCCCc1ccc(CCC(N)(CO)CO)cc1` [FTY720, fingolimod, reference compound], the “Mean day of onset +/− SEM (sick rats)” value ([1]; 0.5 mg/kg p.o. QD) is reported as 8.0 +/− 0.3, the “Median day of onset (all rats)” value ([1]; 0.5 mg/kg p.o. QD) is reported as 8.0 and the “EAE incidence (%)” value ([1]; 0.5 mg/kg p.o. QD) is reported as 87.5%.

With `Cc1ncc(F)c(Nc2n[nH]c3c2CN(C(=O)N2C[C@@H](C)N(CC4CCOCC4)C[C@@H]2C)C3(C)C)n1` [compound A, 5-{[(2S,5R)-2,5-dimethyl-4-(tetrahydro-2H-pyran-4-ylmethyl)piperazin-1-yl]carbonyl}-N-(5-fluoro-2-methylpyrimidin-4-yl)-6,6-dimethyl-1,4,5,6-tetrahydropyrrolo[3,4-c]pyrazol-3-amine] the urine score (MRL/lpr lupus model; FIG. 7) was “reducing urine score”, the lymphadenopathy (MRL/lpr lupus model; FIG. 8) was “reducing lymphadenopathy” and the splenomegaly (MRL/lpr lupus model; FIG. 9) was “reducing splenomegaly”. For the same molecule, the increased spleen weight [2] was “efficacy”, the “Mean day of onset +/− SEM (sick rats)” value ([1]; 7.5 mg/kg p.o. BID) was 9.0 +/− 0.5 and the “Median day of onset (all rats)” value ([1]; 7.5 mg/kg p.o. BID) was 9.0. The “EAE incidence (%)” value ([1]; 7.5 mg/kg p.o. BID) was 100.0%, the “Mean day of onset +/− SEM (sick rats)” value ([1]; 15 mg/kg p.o. BID) was 8.5 +/− 0.4 and the “Median day of onset (all rats)” value ([1]; 15 mg/kg p.o. BID) was 8.0. The “EAE incidence (%)” value ([1]; 15 mg/kg p.o. BID) was 100.0%, the “Mean day of onset +/− SEM (sick rats)” value ([1]; 30 mg/kg p.o. BID) was 9.0 +/− 0.9 and the “Median day of onset (all rats)” value ([1]; 30 mg/kg p.o. BID) was 13.5. The “EAE incidence (%)” value ([1]; 30 mg/kg p.o. BID, p<0.05 vs. vehicle) was 50.0%*, the “Clinical score in the EAE model” value ([1]; 7.5, 15 and 30 mg/kg BID) was “dose-dependent decrease” and the “End EAE severity compared to the vehicle control group (FIG. 11)” value ([1]; 15 and 30 mg/kg BID) was “significantly reduced”. For the same molecule, the “Maximum EAE severity compared to the vehicle control group (FIG. 11)” value ([1]; 15 and 30 mg/kg BID) was “significantly reduced”, the “Clinical score compared with fingolimod” value ([1]; highest dose employed (30 mg/kg BID) vs fingolimod 0.5 mg/kg QD) was “appeared superior to fingolimod” and the BUN/Creatinine ([3]; 90 mg/kg p.o. BID) was 163.9. The Creatinine ([3]; 90 mg/kg p.o. BID) was 0.26, the “BUN” value ([3]; 90 mg/kg p.o. BID, 12 weeks of treatment) was 52.4 mg/dL and the “BUN” value [3, 7] was 29.5 mg/dL. The BUN/Creatinine [3, 7] was 147.7, the Creatinine [3, 7] was 0.20 and the “Lymphadenopathy score (FIG. 8)” value [3, 8] was “reduction”. For the same molecule, the “Mean absolute spleen weight (FIG. 9)” value [3, 8] was “reduction”, the “Mean lymph node weight (FIG. 10)” value [3, 8] was “reduction” and the “Protein in the urine (FIG. 7)” value [3, 8] was “significant reduction”. The “Inhibition of PKC delta (in words)” value (Human PKC delta) was “does not significantly inhibit”, the “Reduction in clinical scores (FIG. 12)” value [4] was “greater than 50%” and the “Reduction in histopathological scores (FIG. 13)” value [4] was “greater than 75%”. For the same molecule, the “efficacy in a rat model of encephalitis” value [5] was “efficacy”, the IC50 (Interleukin-8 release) was 39 nM and the IC50 (PKCβ) was 9.8 nM. The “Exposure of compound A in mice” value [6] was “unexpectedly low and insufficient exposure”.
